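Test compounds were applied to cells in 96-well plates for 48 hours at 5 doses. GI50 is the concentration that inhibits growth by half.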 Calls of active or inactive are those of the source. Rule as the data show it: active = GI50 up to about 1.1 µM and inactive = higher. Square brackets hold non-standard residues; d marks the D form. Peptide text beside a SMILES is read from it. * marks the point of attachment. X26 = COC1=CC(=O)N(C(=O)[C@@H](O*)C(C)C)[C@H]1Cc1ccccc1; NMeL = CN[C@@H](CC(C)C)C(=O)O; Hexanoyl = CCCCCC(=O)*
Legend:
Experiment in all cases: NCI tumour cell line growth inhibition, 48 h
HCT-116 = system: HCT-116
HT-29 = system: HT-29
RXF 393 = system: RXF 393
SNB-19 = system: SNB-19
BT-549 = system: BT-549
UACC-62 = system: UACC-62
CAKI-1 = system: CAKI-1
EKVX = system: EKVX
UO-31 = system: UO-31
SK-OV-3 = system: SK-OV-3
NCI-H226 = system: NCI-H226
LOX IMVI = system: LOX IMVI
UACC-257 = system: UACC-257
CCRF-CEM = system: CCRF-CEM
Hs-578T = system: Hs-578T
T47D = system: T47D
786-0 = system: 786-0
HCT-15 = system: HCT-15
SK-MEL-28 = system: SK-MEL-28
MOLT-4 = system: MOLT-4

Compound: OC(Cc1cccnc1)(c1ccccc1)c1ccccc1
- GI50 (HCT-116): > 100 µM (inactive)
- GI50 (HT-29): > 100 µM (inactive)
- GI50 (RXF 393): > 100 µM (inactive)
- GI50 (SNB-19): > 100 µM (inactive)
- GI50 (BT-549): 73.6 µM (inactive)
- GI50 (UACC-62): 91.6 µM (inactive)
- GI50 (CAKI-1): > 100 µM (inactive)
- GI50 (EKVX): 17.8 µM (inactive)
- GI50 (UO-31): > 100 µM (inactive)
- GI50 (SK-OV-3): > 100 µM (inactive)
- GI50 (NCI-H226): > 100 µM (inactive)
- GI50 (LOX IMVI): > 100 µM (inactive)
- GI50 (UACC-257): 41.3 µM (inactive)
- GI50 (CCRF-CEM): > 100 µM (inactive)
- GI50 (Hs-578T): > 100 µM (inactive)
- GI50 (T47D): 59 µM (inactive)
- GI50 (786-0): > 100 µM (inactive)
- GI50 (HCT-15): > 100 µM
- GI50 (SK-MEL-28): > 100 µM (inactive)

Compound: CCN(CC)C(=S)SS(=O)(=O)c1ccc(C)cc1
- GI50 (HT-29): 13.2 µM (inactive)
- GI50 (RXF 393): 16.8 µM (inactive)
- GI50 (SNB-19): 61.1 µM (inactive)
- GI50 (BT-549): 28.7 µM (inactive)
- GI50 (UACC-62): 16.2 µM (inactive)
- GI50 (CAKI-1): 17.7 µM (inactive)
- GI50 (EKVX): > 100 µM (inactive)
- GI50 (UO-31): 20.7 µM (inactive)
- GI50 (SK-OV-3): > 100 µM (inactive)
- GI50 (NCI-H226): 52 µM (inactive)
- GI50 (LOX IMVI): 17.4 µM (inactive)
- GI50 (UACC-257): 19.2 µM (inactive)
- GI50 (CCRF-CEM): < 0.01 µM (active)
- GI50 (Hs-578T): 75.5 µM (inactive)
- GI50 (T47D): 59.7 µM (inactive)
- GI50 (786-0): 20.3 µM (inactive)
- GI50 (HCT-15): 36.7 µM
- GI50 (SK-MEL-28): 18.5 µM (inactive)

Compound: C=CCOc1ccc(C2(c3ccc(OCC=C)cc3)C(=O)Nc3ccccc32)cc1
- GI50 (HCT-116): > 10 µM (inactive)
- GI50 (HT-29): > 10 µM (inactive)
- GI50 (RXF 393): > 10 µM (inactive)
- GI50 (SNB-19): > 10 µM (inactive)
- GI50 (BT-549): 9.31 µM (inactive)
- GI50 (UACC-62): > 10 µM (inactive)
- GI50 (CAKI-1): > 10 µM (inactive)
- GI50 (EKVX): > 10 µM (inactive)
- GI50 (SK-OV-3): > 10 µM (inactive)
- GI50 (NCI-H226): > 10 µM (inactive)
- GI50 (LOX IMVI): > 10 µM (inactive)
- GI50 (MOLT-4): > 10 µM (inactive)
- GI50 (UACC-257): > 10 µM (inactive)
- GI50 (CCRF-CEM): > 10 µM (inactive)
- GI50 (Hs-578T): 1.46 µM (inactive)
- GI50 (T47D): 8.13 µM (inactive)
- GI50 (786-0): > 10 µM (inactive)
- GI50 (HCT-15): > 10 µM
- GI50 (SK-MEL-28): > 10 µM (inactive)

Compound: CC1(CF)SCc2nc3ccccc3n21 (stereo unspecified)
- GI50 (HCT-116): > 100 µM (inactive)
- GI50 (HT-29): > 100 µM (inactive)
- GI50 (RXF 393): > 100 µM (inactive)
- GI50 (SNB-19): > 100 µM (inactive)
- GI50 (BT-549): > 100 µM (inactive)
- GI50 (UACC-62): > 100 µM (inactive)
- GI50 (CAKI-1): > 100 µM (inactive)
- GI50 (EKVX): > 100 µM (inactive)
- GI50 (UO-31): 81.1 µM (inactive)
- GI50 (SK-OV-3): > 100 µM (inactive)
- GI50 (NCI-H226): > 100 µM (inactive)
- GI50 (LOX IMVI): > 100 µM (inactive)
- GI50 (UACC-257): > 100 µM (inactive)
- GI50 (Hs-578T): > 100 µM (inactive)
- GI50 (T47D): > 100 µM (inactive)
- GI50 (786-0): > 100 µM (inactive)
- GI50 (HCT-15): > 100 µM
- GI50 (SK-MEL-28): > 100 µM (inactive)

Compound: COC(=O)C(O)P(=O)(OC)OC (stereo unspecified)
- GI50 (HCT-116): > 100 µM (inactive)
- GI50 (HT-29): > 100 µM (inactive)
- GI50 (RXF 393): > 100 µM (inactive)
- GI50 (SNB-19): > 100 µM (inactive)
- GI50 (BT-549): > 100 µM (inactive)
- GI50 (UACC-62): > 100 µM (inactive)
- GI50 (CAKI-1): > 100 µM (inactive)
- GI50 (EKVX): > 100 µM (inactive)
- GI50 (UO-31): > 100 µM (inactive)
- GI50 (SK-OV-3): > 100 µM (inactive)
- GI50 (NCI-H226): > 100 µM (inactive)
- GI50 (LOX IMVI): > 100 µM (inactive)
- GI50 (MOLT-4): > 100 µM (inactive)
- GI50 (UACC-257): > 100 µM (inactive)
- GI50 (Hs-578T): > 100 µM (inactive)
- GI50 (T47D): > 100 µM (inactive)
- GI50 (786-0): > 100 µM (inactive)
- GI50 (HCT-15): > 100 µM
- GI50 (SK-MEL-28): > 100 µM (inactive)

Compound: CCCCCC(=O)N[C@H](C(=O)N[C@H](C(=O)N(C)[C@@H](CC(C)C)C(=O)N1CCC[C@H]1C(=O)N1CCC[C@H]1C(=O)O[C@H](C(=O)N1C(=O)C=C(OC)[C@@H]1Cc1ccccc1)C(C)C)C(C)C)C(C)C (Hexanoyl-VV[NMeL]PP-X26)
- GI50 (HCT-116): 54.7 µM (inactive)
- GI50 (HT-29): > 100 µM (inactive)
- GI50 (RXF 393): 10.1 µM (inactive)
- GI50 (BT-549): 83.4 µM (inactive)
- GI50 (UACC-62): > 100 µM (inactive)
- GI50 (CAKI-1): 74.6 µM (inactive)
- GI50 (EKVX): > 100 µM (inactive)
- GI50 (SK-OV-3): > 100 µM (inactive)
- GI50 (NCI-H226): > 100 µM (inactive)
- GI50 (LOX IMVI): > 100 µM (inactive)
- GI50 (MOLT-4): 1.9 µM (inactive)
- GI50 (UACC-257): 45.3 µM (inactive)
- GI50 (CCRF-CEM): 42.9 µM (inactive)
- GI50 (Hs-578T): > 88.3 µM (inactive)
- GI50 (T47D): 70.8 µM (inactive)
- GI50 (786-0): > 91 µM (inactive)
- GI50 (HCT-15): > 43.4 µM
- GI50 (SK-MEL-28): > 100 µM (inactive)
